This is an account of results in patent publication US9000025B2, “Autotaxin inhibitors and uses thereof” (Amira Pharmaceuticals, Inc., priority 2010, dated 2015).

The experiment has as its target T1, autotaxin (ATX) (Homo sapiens, UniProt Q13822).
T1 construct: conditioned medium from the human melanoma cell line, MDA-MB-4355, which endogenously expresses autotaxin; host or cells: MDA-MB-435S human melanoma cells; serum-free conditioned medium, concentrated 20-fold
The experiment is described as follows: Native Autotaxin Choline Release Assay. The experiment is classed as biochemical. The note with it: autotaxin in conditioned medium from human melanoma cell line; choline released from LPC; read-out: MDA-MB-435S Assay IC50. Here is the method: ATX activity is determined by measuring the amount of choline realeased from the substrate, lyosphophatidylcholine (LPC). […] After reaching confluency, the cells are washed twice with phosphate-buffered saline (PBS) then cultured for 48 hours in phenol-red free, serum-free DMEM containing sodium pyruvate. […] 100 μl of a color mix which contains 4.5 mM 4-aminoantipyrine, 2.7 mM N-ethyl-N-(2-hydroxy-3-sulfopropyl)-m-toluidine, 21 units/ml horseradish peroxidase and 3 units/ml choline oxidase in 50 mM Tris, pH 8, 4.5 mM MgCl2 is added and the incubation continued at 37° C. for 10 minutes before reading the absorbance at 555 nm. The concentration of released choline in the sample is determined from a choline standard curve and is equal to the concentration of LPA produced.

SMILES strings stand for the structures.

On to `Cc1c(Sc2cccc(C(=O)O)c2)c2ccc(Cl)c(F)c2n1-c1cnn(C(C)(C)C)c1` [Compound 3-60, 3-[1-(1-tert-Butyl-1H-pyrazol-4-yl)-6-chloro-7-fluoro-2-methyl-1H-indol-3-ylsulfanyl]-benzoic acid], for which the IC50 (in general, the midpoint of a concentration-inhibition curve) was less than 0.3 µM.
Then `CCCn1cc(-n2c(C)c(Sc3cccc(C(=O)NS(=O)(=O)c4ccccc4)c3F)c3ccc(Cl)c(F)c32)cn1` [Compound 4-8, N-{3-[6-Chloro-1-(1-propyl-1H-pyrazol-4-yl)-7-fluoro-2-methyl-1H-indol-3-ylsulfanyl]-2-fluoro-benzoyl}-benzenesulfonamide], with less than 0.3 µM.
For the compound `Cc1c(Sc2cccc(C(=O)O)c2)c2ccc(Cl)c(F)c2n1-c1cnn(C2CCC2)c1` [Compound 3-36, 3-[6-Chloro-1-(1-cyclobutyl-1H-pyrazol-4-yl)-7-fluoro-2-methyl-1H-indol-3-ylsulfanyl]-benzoic acid], the concentration for half-maximal inhibition (IC50) was less than 0.3 µM.
As for `CCCn1cc(-n2c(C)c(Sc3cccc(C(=O)O)c3)c3ccc(Cl)c(F)c32)cn1` [Compound 3-24, 3-[6-Chloro-7-fluoro-2-methyl-1-(1-propyl-1H-pyrazol-4-yl)-1H-indol-3-ylsulfanyl]-benzoic acid], the IC50 was less than 0.3 µM.
In the case of `Cc1c(Sc2cccc(CCC(=O)O)c2)c2ccc(Cl)cc2n1Cc1ccccc1` [Compound 1-17, 3-[3-(1-Benzyl-6-chloro-2-methyl-1H-indol-3-ylsulfanyl)-phenyl]-propionic acid], the half-inhibitory concentration (IC50) was more than 1 µM.
As for `Cc1c(Sc2cccc(C(=O)O)c2)c2ccc(Cl)c(F)c2n1-c1cnn(C(C)C)c1` [Compound 3-56, 3-[6-Chloro-7-fluoro-1-(1-isopropyl-1H-pyrazol-4-yl)-2-methyl-1H-indol-3-ylsulfanyl]-benzoic acid], the IC50 was less than 0.3 µM.
Regarding `CCCn1cc(-n2c(C)c(Sc3cccc(CC(=O)NS(=O)(=O)c4ccccc4)c3)c3ccc(Cl)cc32)cn1` [Compound 3-55, N-(2-{3-[6-Chloro-2-methyl-1-(1-propyl-1H-pyrazol-4-yl)-1H-indol-3-ylsulfanyl]-phenyl}-acetyl)-benzenesulfonamide], the half-inhibitory concentration (IC50) was less than 0.3 µM.
Then `CCn1cc(-n2c(C)c(Sc3cccc(C(=O)O)c3)c3ccc(Cl)c(Cl)c32)cn1` [Compound 3-52, 3-[6,7-Dichloro-1-(1-ethyl-1H-pyrazol-4-yl)-2-methyl-1H-indol-3-ylsulfanyl]-benzoic acid], with less than 0.3 µM; and `Cc1c(Sc2cccc(C(=O)O)c2)c2ccc(Cl)cc2n1C(C)c1ccccc1` (stereo not shown) [Compound 1-19, 3-[6-Chloro-2-methyl-1-(1-phenyl-ethyl)-1H-indol-3-ylsulfanyl]-benzoic acid], with more than 1 µM; and `Cc1c(Oc2cccc(CC#N)c2)c2ccc(Cl)cc2n1Cc1ccccc1` [Compound 2-5, [3-(1-Benzyl-6-chloro-2-methyl-1H-indol-3-yloxy)-phenyl]-acetonitrile], with more than 1 µM.
As for `Cc1c(Sc2cccc(C(=O)O)c2)c2ccc(Cl)c(F)c2n1-c1cnn(-c2ccccc2)c1` [Compound 3-23, 3-[6-Chloro-7-fluoro-2-methyl-1-(1-phenyl-1H-pyrazol-4-yl)-1H-indol-3-ylsulfanyl]-benzoic acid], the IC50 was less than 0.3 µM.
`Cc1c(Sc2ccccc2CC(=O)O)c2ccc(Cl)cc2n1C` [Compound 3-10, [2-(6-Chloro-1,2-dimethyl-1H-indol-3-ylsulfanyl)-phenyl]-acetic acid]: the IC50 is more than 1 µM.
Under `Cc1cc(-n2c(C)c(Sc3cccc(C(=O)O)c3)c3ccc(Cl)c(F)c32)cs1` [Compound 3-61, 3-[6-Chloro-7-fluoro-2-methyl-1-(5-methyl-thiophen-3-yl)-1H-indol-3-ylsulfanyl]-benzoic acid] stands less than 0.3 µM; under `Cc1c(Sc2cccc(C(=O)O)c2)c2ccc(Cl)cc2n1-c1cnn(-c2ccc(F)cc2)c1` [Compound 1-71, 3-{6-Chloro-1-[1-(4-fluoro-phenyl)-1H-pyrazol-4-yl]-2-methyl-1H-indol-3-ylsulfanyl}-benzoic acid], less than 0.3 µM.
As to `CCn1cc(-n2c(C)c(Sc3cccc(C(=O)NS(C)(=O)=O)c3)c3ccc(Cl)c(F)c32)cn1` [Compound 3-29, N-{3-[6-Chloro-1-(1-ethyl-1H-pyrazol-4-yl)-7-fluoro-2-methyl-1H-indol-3-ylsulfanyl]-benzoyl}-methanesulfonamide], the IC50 is less than 0.3 µM.
Then `Cc1c(Sc2cccc(C(=O)O)c2)c2ccc(-c3cccnc3)cc2n1Cc1ccccc1` [Compound 1-12, 3-(1-Benzyl-2-methyl-6-pyridin-3-yl-1H-indol-3-ylsulfanyl)-benzoic acid], with more than 1 µM.
For the compound `Cc1c(Sc2cccc(C(=O)O)c2)c2ccc(Cl)cc2n1-c1cnn(C)c1` [Compound 1-39, 3-[6-Chloro-2-methyl-1-(1-methyl-1H-pyrazol-4-yl)-1H-indol-3-ylsulfanyl]-benzoic acid], the IC50 was less than 0.3 µM.
`Cc1c(Sc2cccc(CC(=O)O)c2)c2ccc(Cl)cc2n1C` [Compound 1-5, [3-(6-Chloro-1,2-dimethyl-1H-indol-3-ylsulfanyl)-phenyl]-acetic acid]: the IC50 is more than 1 µM.
As for `CCn1ccc(-n2c(C)c(Sc3cccc(C(=O)O)c3)c3ccc(Cl)c(F)c32)n1` [Compound 3-58, 3-[6-Chloro-1-(1-ethyl-1H-pyrazol-3-yl)-7-fluoro-2-methyl-1H-indol-3-ylsulfanyl]-benzoic acid], the half-maximal inhibitory concentration (IC50) lay within 0.3 to 1 µM.
Turning to `Cc1c(Sc2cccc(C(=O)O)c2)c2ccc(Cl)cc2n1Cc1ccncc1` [Compound 1-23, 3-(6-Chloro-2-methyl-1-pyridin-4-ylmethyl-1H-indol-3-ylsulfanyl)-benzoic acid], the IC50 was less than 0.3 µM.
With `CCCn1cc(-n2c(C)c(Sc3cccc(CC(=O)O)c3F)c3ccc(Cl)c(F)c32)cn1` [Compound 4-12, {3-[6-Chloro-7-fluoro-2-methyl-1-(1-propyl-1H-pyrazol-4-yl)-1H-indol-3-ylsulfanyl]-2-fluoro-phenyl}-acetic acid], the half-maximal inhibitory concentration (IC50) was less than 0.3 µM.
For the compound `COc1ccc(C(=O)O)cc1Sc1c(C)n(-c2cnn(C)c2)c2cc(Cl)ccc12` [Compound 1-41, 3-[6-Chloro-2-methyl-1-(1-methyl-1H-pyrazol-4-yl)-1H-indol-3-ylsulfanyl]-4-methoxy-benzoic acid], the half-maximal inhibitory concentration (IC50) was more than 1 µM.
In the case of `Cc1c(Sc2cccc(C(=O)O)c2)c2ccc(Cl)c(F)c2n1-c1cnn(C2CC2)c1` [Compound 3-47, 3-[6-Chloro-1-(1-cyclopropyl-1H-pyrazol-4-yl)-7-fluoro-2-methyl-1H-indol-3-ylsulfanyl]-benzoic acid], the IC50 was less than 0.3 µM.
Turning to `CCn1cc(-n2c(C)c(Sc3cccc(C(=O)O)c3)c3ccc(C#N)cc32)cn1` [Compound 3-31, 3-[6-Cyano-1-(1-ethyl-1H-pyrazol-4-yl)-2-methyl-1H-indol-3-ylsulfanyl]-benzoic acid], the IC50 is less than 0.3 µM.
Under `CCn1cc(-n2c(C)c(Sc3cc(F)cc(C(=O)O)c3)c3ccc(Cl)c(F)c32)cn1` [Compound 4-2, 3-[6-Chloro-1-(1-ethyl-1H-pyrazol-4-yl)-7-fluoro-2-methyl-1H-indol-3-ylsulfanyl]-5-fluoro-benzoic acid] stands less than 0.3 µM; under `Cc1ccc(-n2c(C)c(Sc3cccc(C(=O)O)c3)c3ccc(Cl)cc32)nn1` [Compound 1-68, 3-[6-Chloro-2-methyl-1-(6-methyl-pyridazin-3-yl)-1H-indol-3-ylsulfanyl]-benzoic acid], 0.3 to 1 µM.
Regarding `Cc1[nH]c2cc(F)ccc2c1Sc1cccc(CC(=O)O)c1` [Compound 1-2, [3-(6-Fluoro-2-methyl-1H-indol-3-ylsulfanyl)-phenyl]-acetic acid], the IC50 was more than 1 µM.
`CCn1cc(-n2c(C)c(Sc3cccc(C(=O)O)c3C)c3ccc(Cl)cc32)cn1` [Compound 1-64, 3-[6-Chloro-2-methyl-1-(1-ethyl-1H-pyrazol-4-yl)-1H-indol-3-ylsulfanyl]-2-methyl-benzoic acid]: the IC50 was less than 0.3 µM.
`Cc1ccc(-n2c(C)c(Sc3cccc(C(=O)O)c3)c3ccc(Cl)c(F)c32)s1` [Compound 3-62, 3-[6-Chloro-7-fluoro-2-methyl-1-(5-methyl-thiophen-2-yl)-1H-indol-3-ylsulfanyl]-benzoic acid]: the IC50 was 0.3 to 1 µM.
`Cc1ccc(C(=O)O)cc1Sc1c(C)n(-c2cnn(C)c2)c2cc(Cl)ccc12` [Compound 1-50, 3-[6-Chloro-2-methyl-1-(1-methyl-1H-pyrazol-4-yl)-1H-indol-3-ylsulfanyl]-4-methyl-benzoic acid]: the IC50 was more than 1 µM.
`CCC(C(=O)O)c1cccc(Sc2c(C)n(-c3cccnc3)c3cc(Cl)ccc23)c1` (stereo not shown) [Compound 1-49, 2-[3-(6-Chloro-2-methyl-1-pyridin-3-yl-1H-indol-3-ylsulfanyl)-phenyl]-butyric acid]: the half-maximal inhibitory concentration (IC50) was less than 0.3 µM.
For the compound `CCn1cc(-n2c(C)c(Sc3cccc(CC(=O)O)c3)c3ccc(Cl)c(F)c32)cn1` [Compound 3-28, {3-[6-Chloro-1-(1-ethyl-1H-pyrazol-4-yl)-7-fluoro-2-methyl-1H-indol-3-ylsulfanyl]-phenyl}-acetic acid], the IC50 was less than 0.3 µM.
Take `Cc1c(Sc2cccc(CC(=O)O)c2)c2ccccc2n1C` [Compound 1-4, [3-(1,2-Dimethyl-1H-indol-3-ylsulfanyl)-phenyl]-acetic acid]: the IC50 is more than 1 µM.
As for `Cc1c(Sc2cccc(C(=O)NCC[N+](C)(C)C)c2)c2ccc(Br)cc2n1Cc1ccccc1` [Compound 2-10, {2-[3-(1-Benzyl-6-bromo-2-methyl-1H-indol-3-ylsulfanyl)-benzoylamino]-ethyl}-trimethyl-ammonium], the half-inhibitory concentration (IC50) is more than 1 µM.
